Assay results reported in US12692230B2, “(1 h-indol-5-yl)acrylamide derivatives as inhibitors of TEAD proteins and the hippo-YAP1/TAZ signaling cascade for the treatment of cancer” (Sanofi, priority 2020, dated 2026).

tested on: TEAD responsive promoter element (8XGTIIC-Luciferase; YAP1-TEAD and TAZ-TEAD activity); assay: TEAD-Luciferase reporter assay; assay type: cell-based; conditions: Homo sapiens; luciferase activity in tumor cell lines with stable integration of the 8XGTIIC-Luciferase construct; 10 doses between 1 and 10000 nM, 48 hrs
Description: TEAD-Luciferase Reporter Assay
Luciferase-based gene reporter assays were used, employing the TEAD responsive promoter element that are stably integrated to different human tumor cell lines in order to monitor YAP1-TEAD and TAZ-TEAD activity and to study YAP1/TAZ-TEAD activity modulation by small molecule compounds. Luciferase-based gene reporter assays employing the GAPDH promoter element and stably integrated to different human tumor cell lines are used as counter screen control cell lines.
Tumor cell lines with stable integration of the 8XGTIIC-Luciferase construct (Dupont et al., Nature 2011) or the GAPDH-Luciferase control plasmid, are seeded in culture medium in 96-well plates at a density of 8000 cells/well. Following an overnight incubation in a 37° C., 5% CO2 growth chamber, cells are treated with compounds described above at 10 doses ranging between 1 and 10000 nM for 48 hrs. After compound incubation, cells are lysed with Bright-Glo Luciferase Assay System (Promega E2620) and luciferase activity is measured using a luminescent plate reader.
The inhibitory activity of the compounds with respect to luciferase activity is given by the concentration which inhibits 50% of activity of non-treated cells. IC50s are determined with a nonlinear regression model on XLfit software analysis (IDBS, UK).

Point of comparison: `C=CC(=O)N(C)c1ccc2c(ccn2Cc2cccc(C(F)(F)F)c2)c1` [Example 2, N-methyl-N-(1-(3-(trifluoromethyl)benzyl)-1H-indol-5-yl)acrylamide], IC50 1090 nM. Against it:
- C=CC(=O)Nc1ccc2c(ccn2Cc2cccc(C(F)(F)F)c2)c1 [Example 1, N-(1-(3-(trifluoromethyl)benzyl)-1H-indol-5-yl)acrylamide] — 45-fold lower, 24 nM
- C=CC(=O)Nc1ccc2c(ccn2CCCCC(F)(F)F)c1 [Example 3, N-(1-(5,5,5-trifluoropentyl)-1H-indol-5-yl)acrylamide] — 44-fold lower, 25 nM
- C=CC(=O)Nc1ccc2c(ccn2C(C)c2cccc(C(F)(F)F)c2)c1 (stereo not drawn) [Example 4, N-(1-(1-(3-(trifluoromethyl)phenyl)ethyl)-1H-indol-5-yl)acrylamide] — 2-fold lower, 558 nM
- C=CC(=O)Nc1ccc2c(ccn2Cc2cccc(S(F)(F)(F)(F)F)c2)c1 [Example 5, N-(1-(3-(pentafluoro-λ6-sulfanyl)benzyl)-1H-indol-5-yl)acrylamide] — 18-fold lower, 61 nM
- C=CC(=O)Nc1ccc2c(ccn2Cc2ccc(S(F)(F)(F)(F)F)cc2)c1 [Example 6, N-(1-(4-(pentafluoro-λ6-sulfanyl)benzyl)-1H-indol-5-yl)acrylamide] — 3.7-fold higher, 4040 nM
- C=CC(=O)Nc1ccc2c(ccn2Cc2ccc(OC(F)(F)F)cc2)c1 [Example 7, N-(1-(4-(trifluoromethoxy)benzyl)-1H-indol-5-yl)acrylamide] — higher, ≥ 10000 nM
- C=CC(=O)Nc1ccc2c(ccn2Cc2cccc(OC(F)(F)F)c2)c1 [Example 8, N-(1-(3-(trifluoromethoxy)benzyl)-1H-indol-5-yl)acrylamide] — 3.7-fold lower, 296 nM
- C=CC(=O)Nc1ccc2c(ccn2Cc2cccc(I)c2)c1 [Example 9, N-(1-(3-iodobenzyl)-1H-indol-5-yl)acrylamide] — 7.6-fold lower, 143 nM
- C=CC(=O)Nc1ccc2c(ccn2Cc2cc(C(F)(F)F)ccc2F)c1 [Example 10, N-(1-(2-fluoro-5-(trifluoromethyl)benzyl)-1H-indol-5-yl)acrylamide] — 6.6-fold higher, 7220 nM
- C=CC(=O)Nc1ccc2c(c1)c(C)cn2Cc1cccc(C(F)(F)F)c1 [Example 11, N-(3-methyl-1-(3-(trifluoromethyl)benzyl)-1H-indol-5-yl)acrylamide] — 36-fold lower, 30 nM
- C=CC(=O)Nc1ccc2c(ccn2Cc2cccc(OC)c2)c1 [Example 12, N-(1-(3-methoxybenzyl)-1H-indol-5-yl)acrylamide] — 4.5-fold lower, 241 nM
- C=CC(=O)Nc1ccc2c(c1)cc(C)n2Cc1cccc(C(F)(F)F)c1 [Example 13, N-(2-methyl-1-(3-(trifluoromethyl)benzyl)-1H-indol-5-yl)acrylamide] — 17-fold lower, 63 nM
- C=CC(=O)Nc1ccc2c(c1)c(C#N)cn2Cc1cccc(C(F)(F)F)c1 [Example 14, N-(3-cyano-1-(3-(trifluoromethyl)benzyl)-1H-indol-5-yl)acrylamide] — 4.6-fold lower, 236 nM
- C=CC(=O)Nc1ccc2c(ccn2Cc2cccc(C3CC3)c2)c1 [Example 15, N-(1-(3-cyclopropylbenzyl)-1H-indol-5-yl)acrylamide] — 2.2-fold lower, 496 nM
- C=CC(=O)Nc1ccc2c(c1)c(C)c(C)n2Cc1cccc(C(F)(F)F)c1 [Example 16, N-(2,3-dimethyl-1-(3-(trifluoromethyl)benzyl)-1H-indol-5-yl)acrylamide] — 35-fold lower, 31 nM
- C=CC(=O)Nc1ccc2c(ccn2Cc2cccc(C)c2)c1 [Example 17, N-(1-(3-methylbenzyl)-1H-indol-5-yl)acrylamide] — 20-fold lower, 54 nM
- C=CC(=O)Nc1ccc2c(ccn2Cc2ccccc2)c1 [Example 18, N-(1-Benzyl-1H-indol-5-yl)-acrylamide] — within 1.5-fold, 963 nM
- C=CC(=O)Nc1cccc2c1ccn2Cc1cccc(C(F)(F)F)c1 [Example 19, N-(1-(3-(trifluoromethyl)benzyl)-1H-indol-4-yl)acrylamide] — 5.6-fold lower, 195 nM
- CN(C)C/C=C/C(=O)Nc1cccc2c1ccn2Cc1cccc(C(F)(F)F)c1 [Example 20, (E)-4-(dimethylamino)-N-(1-(3-(trifluoromethyl)benzyl)-1H-indol-4-yl)but-2-enamide] — 7.1-fold higher, 7760 nM
- C=CC(=O)Nc1ccc2ccn(Cc3cccc(C(F)(F)F)c3)c2c1 [Example 21, N-(1-(3-(trifluoromethyl)benzyl)-1H-indol-6-yl)acrylamide] — 31-fold lower, 35 nM
- C=CC(=O)Nc1ccc2c(ccn2CC2CCC(F)(F)CC2)c1 [Example 22, N-(1-((4,4-difluorocyclohexyl)methyl)-1H-indol-5-yl)acrylamide] — within 1.5-fold, 1400 nM
- C=CC(=O)Nc1ccc2c(ccn2CC2CCOCC2)c1 [Example 23, N-(1-((tetrahydro-2H-pyran-4-yl)methyl)-1H-indol-5-yl)acrylamide] — 3-fold lower, 369 nM
- C=CC(=O)Nc1ccc2c(ccn2CC2CCC(C(F)(F)F)CC2)c1 (stereo not drawn) [Example 24, N-(1-((4-(trifluoromethyl)cyclohexyl)methyl)-1H-indol-5-yl)acrylamide] — within 1.5-fold, 1000 nM
- C=CC(=O)Nc1ccc2c(ccn2CC2CC3(C2)CC3(F)F)c1 (stereo not drawn) [Example 25, N-(1-((1,1-difluorospiro[2.3]hexan-5-yl)methyl)-1H-indol-5-yl)acrylamide] — within 1.5-fold, 1000 nM
- C=CC(=O)Nc1ccc2c(ccn2CC2CCC(F)C2)c1 (stereo not drawn) [Example 26, N-(1-((3-fluorocyclopentyl)methyl)-1H-indol-5-yl)acrylamide] — 3.1-fold lower, 357 nM
- C=CC(=O)Nc1ccc2c(ccn2CC2CCCCC2)c1 [Example 27, N-(1-(cyclohexylmethyl)-1H-indol-5-yl)acrylamide] — higher, ≥ 10000 nM
- C=CC(=O)Nc1ccc2c(ccn2CC2CC(C(F)(F)F)C2)c1 (stereo not drawn) [Example 28, N-(1-((3-(trifluoromethyl)cyclobutyl)methyl)-1H-indol-5-yl)acrylamide] — higher, ≥ 10000 nM
- C=CC(=O)Nc1ccc2c(ccn2CC2CCC(F)(F)C2)c1 (stereo not drawn) [Example 29, N-(1-((3,3-difluorocyclopentyl)methyl)-1H-indol-5-yl)acrylamide] — 25-fold lower, 43 nM
- C=CC(=O)Nc1ccc2c(ccn2Cc2ccc(-c3ccccc3)cc2)c1 [Example 30, N-(1-([1,1′-biphenyl]-4-ylmethyl)-1H-indol-5-yl)acrylamide] — higher, ≥ 10000 nM
- C=CC(=O)Nc1ccc2c(ccn2Cc2ccc(-c3cccc(C(F)(F)F)c3)cc2)c1 [Example 31, N-(1-((3′-(trifluoromethyl)-[1,1′-biphenyl]-4-yl)methyl)-1H-indol-5-yl)acrylamide] — 54-fold lower, 20 nM
- C=CC(=O)Nc1ccc2c(ccn2Cc2ccc(-c3ccc(C(F)(F)F)cc3)cc2)c1 [Example 32, N-(1-((4′-(trifluoromethyl)-[1,1′-biphenyl]-4-yl)methyl)-1H-indol-5-yl)acrylamide] — 7.2-fold higher, 7840 nM
- C=CC(=O)Nc1ccc2c(ccn2[C@H]2CC[C@H](C(F)(F)F)CC2)c1 [Example 33, Trans-N-[1-[4-(trifluoromethyl)cyclohexyl]indol-5-yl]acrylamide] — 27-fold lower, 41 nM
- C=CC(=O)Nc1ccc2c(ccn2[C@H]2CC[C@@H](C(F)(F)F)CC2)c1 [Example 34, Cis-N-[1-[4-(trifluoromethyl)cyclohexyl]indol-5-yl]acrylamide] — higher, ≥ 10000 nM
- C=CC(=O)Nc1ccc2c(ccn2CC2CCN(c3ccc(C(F)(F)F)cc3)CC2)c1 [Example 35, N-(1-((1-(4-(trifluoromethyl)phenyl)piperidin-4-yl)methyl)-1H-indol-5-yl)acrylamide] — 2.1-fold higher, 2330 nM
- C=CC(=O)Nc1ccc2c(ccn2CCN(C)CC(F)(F)F)c1 [Example 36, N-(1-(2-(methyl(2,2,2-trifluoroethyl)amino)ethyl)-1H-indol-5-yl)acrylamide] — 4.2-fold higher, 4560 nM
